Test results from patent US20250179437A1, “L[…] FOR PRODUCING PRIMITIVE STREAK CELLS” (UNIVERSITY HEALTH NETWORK, priority 2023, published 2025).

Columns and labels:
Assay type in all cases: cell-based, human
H1 hPSC line [1] = test: Differentiation of hPSCs into primitive streak and definitive endoderm with or without Latrunculin A (flow cytometry)
Text: Human pluripotent stem cell (hPSC) lines: For protocol optimization, the H1 hPSC line^1, purchased from WiCell Research Institute (Madison, USA) was employed. This work has received approval from the Stem Cell Oversight Committee (SCOC) as the focus of a Canadian Institutes of Health Research (CIHR) Canada Graduate Scholarship-Doctoral (CGS-D) award.
hPSC expansion and passage: Cells were cryopreserved in a media composed of 50% IMDM (Life Technologies #12440) or StemMACS iPS-brew XF (Miltenyi Biotec #130-104-368), 40% Fetal Bovine Serum (FBS, Gibco #12483-020), and 10% DMSO (Millipore Sigma #D2650). Cryopreserved hPSCs were thawed in DMEM:F12 (Wisent #319-085-CL) at a ratio of 1 mL cells: 9 mL media, centrifuged at 1000 revolutions per minute (RPM) for 5 minutes, and resuspended in StemMACS iPS-brew XF with 10 μM ROCK1/2 inhibitor (Y-27652, Tocris Biosciences #1254). Cells were maintained in monolayer culture in StemMACS iPS-brew XF media with daily media changes. Upon reaching full confluency, cells were passaged by single cell dissociation using TrypLE (Life Technologies #12605) with 1% DNase 1 mg/mL (Calbiochem 260913), centrifuged for 5 min at 1000 RPM, and resuspended in StemMACS iPS-brew XF with 10 μM ROCK1/2 inhibitor (Y-27652, Tocris Biosciences #1254). Cells were split at a cell line-specific ratio to ensure confluency within 2-3 days, upon which differentiation was initiated.
hPSC differentiation: On day 0, confluent cultures of hPSCs in monolayer format were washed with Calcium- and Magnesium-free dPBS (Corning #20-031-CV) and fed with media with or without Latrunculin A to generate primitive streak (day 1) and definitive endoderm (day 3). The media used at day 0, 1, and 2 are specified in the tables below (Tables 1.1-1.2). When reagents were obtained from suppliers as liquids, the concentration is provided as a percentage of reagent volume/base media volume. When reagents were provided as desiccated powders that required reconstitution, the concentration is specified in either mass or molarity per unit volume of fully reconstituted media. All media were supplemented with 1% vol/vol Gibco Penicillin-Streptomycin (ThermoFisher Scientific #15070063). […]
Dissociated cells in suspension culture were filtered through a 35 micrometer cell strainer, centrifuged, and the supernatant was discarded. […] Cells were analyzed on a BD LSRFortessa flow cytometer. […] Experimental data was analyzed using FlowJo Software (BD).
Cell-surface flow cytometry of hPSC-derived cells: Dissociated cells were directly incubated with directly conjugated primary antibodies (table 1.3) in staining buffer for 20 minutes at room temperature. Cells were then washed once, and resuspended in staining buffer containing 1:100,000 DAPI (Biotium #40043) and directly analyzed by flow cytometry. […]

H1 hPSC line [2] = test: Differentiation of hPSC-derived definitive endoderm to pancreatic progenitors and beta-like cells (flow cytometry)
Text: (§1) hPSC differentiation: On day 0, confluent cultures of hPSCs in monolayer format were washed with Calcium- and Magnesium-free dPBS (Corning #20-031-CV) and fed with media with or without Latrunculin A to generate primitive streak (day 1) and definitive endoderm (day 3). The media used at day 0, 1, and 2 are specified in the tables below (Tables 1.1-1.2). When reagents were obtained from suppliers as liquids, the concentration is provided as a percentage of reagent volume/base media volume. When reagents were provided as desiccated powders that required reconstitution, the concentration is specified in either mass or molarity per unit volume of fully reconstituted media. All media were supplemented with 1% vol/vol Gibco Penicillin-Streptomycin (ThermoFisher Scientific #15070063).
(§2) Following definitive endoderm formation, cells were treated with differentiation media to generate either pancreatic or lung cells.
In an embodiment, the method comprises steps for differentiate the endodermal cell population to pancreatic cells. For example, as described herein differentiation from a an endodermal cell at day 3 differentiation to pancreatic lineages involves a series of steps that will differentiate cells to pancreatic progenitors cells at day 12-13 as described by Nostro et al 2015^2 or Yung and Poon 2019^3 and endocrine cells from day 20 onwards as described by Rezania et al 20144, Pagliuca et al., 2014^5, Hogrebe et al. 2020^6 or Balboa et al., 2022^7, where typically stage 1 is known to generate definitive endoderm, stage 4 is known to generate pancreatic progenitors and stage 6 is known to generate islet-like cells. Stage 2 can span for example 2 to 3 days and stage 3 can span for example 1 to 4 days. Stage 2 for example can include contacting the population to be differentiated (e.g. the Stage 1 endoderm cells) with Fibroblast Growth Factor 10 (FGF10), optionally wingless-type MMTV integration site family member 3A (Wnt3a), optionally Retinoic acid (RA), optionally Activin A, and optionally Dorsomorphin to produce Stage 2 differentiated cells. […]

H1 hPSC line [3] = test: Differentiation of hPSC-derived definitive endoderm to NKX2-1+ lung progenitors (flow cytometry, immunofluorescence); conditions: vs definitive endoderm generated in the absence of LatA
Text: as §1, §2
In an embodiment, the method comprises steps for differentiate the endodermal cell population to lung cells. […]
Dissociated cells in suspension culture were filtered through a 35 micrometer cell strainer, centrifuged, and the supernatant was discarded. […] Cells were analyzed on a BD LSRFortessa flow cytometer. […] Experimental data was analyzed using FlowJo Software (BD). […]

[4] = day 13, vs control without LatA

C/C1=C/C(=O)O[C@@H]2C[C@@H](CC[C@H](C)/C=C\C=C\CC1)O[C@@](O)([C@@H]1CSC(=O)N1)C2 [Latrunculin A] was tested, and the “efficiency of primitive streak cell generation” value (H1 hPSC line [1]; Latrunculin A-treated hPSCs) was “high efficiencies”, the “BRA+ primitive streak cells generated” value (H1 hPSC line [1]; high-density hPSCs, MEF-free, LatA at day 0, 24 hours after starting differentiation) was “nearly pure populations” and the “frequency of FOXA2+SOX17+ definitive endoderm (DE)-like cells” value (H1 hPSC line [1]; high-density hPSCs, day 3 of differentiation, vs control without LatA) was “significantly higher frequencies”. For the same compound, the “impairment of high-density cells in their ability to generate BRA+ cells” value (H1 hPSC line [1]; high-density vs low-density hPSCs, LatA treatment at day 0) was “completely abrogated”, the “PDX1−NKX6-1− cells” value (H1 hPSC line [2]; [4]) was “greatly reduced” and the “frequency of PDX1+NKX6.1+ hPSC-derived pancreatic progenitors” value (H1 hPSC line [2]; [4]) was “greater frequency”. For the same compound, the “frequency of NKX6-1+CPEP+ beta-like cells” value (H1 hPSC line [2]; day 23 of differentiation, vs control protocol) was “greater frequency” and the “frequency of NKX2-1+ lung progenitors” value (H1 hPSC line [3]) was “much higher frequencies”.
